The results in this text go back to patent publication US20080194641A1, “Pesticidal Mixtures” (BASF Aktiengesellschaft, priority 2005, published 2008).

As a reminder, the mortality is the share of the test organisms that died.

In one assay the test system is Colorado potato beetle. Briefly: Leaf-dip bioassay on potato leaves, larval mortality. In kind it is in vivo. The note with it: Leptinotarsa decemlineata, 120 h. As to the method: (§1) Potato plants for Colorado potato beetle and two-leaf cotton plants for tobacco budworm were utilized for bioassays. Excised plant leaves were dipped into 1:1 acetone/water dilutions of the active compounds. After the leaves had dried, they were individually placed onto water-moistened filter paper on the bottoms of Petri dishes. Each dish was infested with 5-7 larvae and covered with a lid. Each treatment dilution was replicated 4 times. Test dishes were held at approximately 27° C. and 60% humidity. Numbers of live and morbid larvae were assessed in each dish at 5 days after treatment application, and percent mortality was calculated.
(§2) To determine if an insecticidal mixture was synergistic, Limpel's formula was used:
(§3) E=Expected % mortality of the mixture X=% mortality of compound X, as measured independently Y=% mortality of compound Y, as measured independently
(§4) Synergism was evident if the % observed mortality for the mixture was greater than the % expected mortality.

Another assay relates to tobacco budworm. Put plainly: Leaf-dip bioassay on cotton leaves, larval mortality. In kind it is in vivo. The settings on record: Heliothis virescens, 120 h, read-out: % Mortality of Tobacco Budworm. As to the method: as §1, §2, §3, §4
[1] abbreviates: read-out: % Mortality of Colorado Potato Beetle.

On to `CCN/C(=N\Nc1c(Cl)cc(C(F)(F)F)cc1Cl)C1(C)CC1(Cl)Cl` (stereo not drawn) [I-2, N-Ethyl-2,2-dichloro-1-methylcyclopropane-carboxamide-2-(2,6-dichloro-α,α,α-tri-fluoro-p-tolyl)hydrazone], for which, in the assay on Colorado potato beetle (dose rate 30 ppm, 5 days after treatment), the mortality at 30 ppm stood at 6.3%. Moreover, the mortality at 60 ppm in the assay on Colorado potato beetle (dose rate 60 ppm, 5 days after treatment) was determined as 39.6%. In the assay on tobacco budworm, the mortality at 60 ppm worked out at 5.4% and the mortality at 100 ppm was 12.5%.
In the case of `CCN/C(=N\Nc1c(Cl)cc(C(F)(F)F)cc1Cl)C(C)(C)C` [I-1, N-ethyl-2,2-dimethylpropionamide-2-(2,6-dichloro-α,α,α-trifluoro-p-tolyl)-hydrazone], the mortality at 100 ppm in the assay with Colorado potato beetle (dose rate 100 ppm, 5 days after treatment) amounted to 0%; in the assay with tobacco budworm, 0%. In addition, the mortality at 300 ppm amounted to 20.8% in the assay on Colorado potato beetle (dose rate 300 ppm, 5 days after treatment) and 16% with tobacco budworm.
On to `CC1(C)C(C=C(Cl)Cl)C1C(=O)OC(C#N)c1cccc(Oc2ccccc2)c1` (stereo not drawn) [alpha-cypermethrin, reference compound], for which, in the assay on Colorado potato beetle (setting [1]), the mortality at 0.03 ppm stood at 0% and the mortality at 0.06 ppm was 4.2%. In addition, in the assay with tobacco budworm, the mortality at 0.03 ppm worked out at 0% and the mortality at 0.06 ppm turned out to be 8.9%.
Take `O=[N+]([O-])NC1=NCCN1Cc1ccc(Cl)nc1` [imidacloprid, reference compound]: in the assay on Colorado potato beetle (setting [1]), the mortality at 0.06 ppm came to 0%.
